Laboratory results: the NIST ThermoML archive (doi:10.1016/j.fluid.2014.07.039)
Numbers after ± are expanded uncertainties.

Experiments:
[1] = 344.15 K, Liquid, pendant drop shape
[2] = 344.15 K; for mass density: Vibrating tube method; for surface tension liquid-gas: Pendant drop shape

Row | SMILES | interfacial tension ([1]; 100 kPa) | interfacial tension ([1]; 1000 kPa) | interfacial tension ([1]; 2000 kPa) | interfacial tension ([1]; 3000 kPa) | interfacial tension ([1]; 4000 kPa) | interfacial tension ([1]; 5000 kPa) | interfacial tension ([1]; 6000 kPa) | interfacial tension ([1]; 7000 kPa) | interfacial tension ([1]; 8000 kPa) | interfacial tension ([1]; 9000 kPa) | interfacial tension ([1]; 10000 kPa) | interfacial tension ([1]; 11000 kPa) | mass density ([2]; 101.33 kPa, Gas) | mass density ([2]; 101.3 kPa, Liquid) | surface tension liquid-gas ([2]; Liquid) | interfacial tension ([1]; 12000 kPa) | interfacial tension ([1]; 13000 kPa) | interfacial tension ([1]; 14000 kPa)
1 | CCCCCCCCCCCC [dodecane] + O=C=O | 20.72 ± 0.02 mN/m | 18.54 ± 0.02 mN/m | 16.53 ± 0.02 mN/m | 14.74 ± 0.02 mN/m | 13.03 ± 0.02 mN/m | 11.31 ± 0.02 mN/m | 9.57 ± 0.02 mN/m | 7.82 ± 0.02 mN/m | 6.12 ± 0.02 mN/m | 4.57 ± 0.02 mN/m | 3.24 ± 0.02 mN/m | 2.26 ± 0.02 mN/m | – | – | – | – | – | –
2 | O=C=O [carbon dioxide] | – | – | – | – | – | – | – | – | – | – | – | – | 1.563 ± 0.032 kg/m3 | – | – | – | – | –
3 | CCCCCCCCCCCC [dodecane] | – | – | – | – | – | – | – | – | – | – | – | – | – | 712.1 ± 0.22 kg/m3 | 20.72 ± 0.24 mN/m | – | – | –
4 | CCCCCCCCCCCCC [tridecane] | – | – | – | – | – | – | – | – | – | – | – | – | – | 720.2 ± 0.22 kg/m3 | 21.56 ± 0.24 mN/m | – | – | –

Other lines, results leading:

Row | interfacial tension ([1]; 100 kPa) | interfacial tension ([1]; 1000 kPa) | interfacial tension ([1]; 2000 kPa) | interfacial tension ([1]; 3000 kPa) | interfacial tension ([1]; 4000 kPa) | interfacial tension ([1]; 5000 kPa) | interfacial tension ([1]; 6000 kPa) | interfacial tension ([1]; 7000 kPa) | interfacial tension ([1]; 8000 kPa) | interfacial tension ([1]; 9000 kPa) | interfacial tension ([1]; 10000 kPa) | interfacial tension ([1]; 11000 kPa) | mass density ([2]; 101.33 kPa, Gas) | mass density ([2]; 101.3 kPa, Liquid) | surface tension liquid-gas ([2]; Liquid) | interfacial tension ([1]; 12000 kPa) | interfacial tension ([1]; 13000 kPa) | interfacial tension ([1]; 14000 kPa) | SMILES
5 | 22.07 ± 0.02 mN/m | 20.41 ± 0.02 mN/m | 18.55 ± 0.02 mN/m | 16.7 ± 0.02 mN/m | 14.87 ± 0.02 mN/m | 13.06 ± 0.02 mN/m | 11.31 ± 0.02 mN/m | 9.61 ± 0.02 mN/m | 8 ± 0.02 mN/m | 6.48 ± 0.02 mN/m | 5.07 ± 0.02 mN/m | 3.78 ± 0.02 mN/m | – | – | – | 2.63 ± 0.02 mN/m | 1.64 ± 0.02 mN/m | 0.82 ± 0.02 mN/m | CCCCCCCCCCCCCC [tetradecane] + O=C=O
6 | – | – | – | – | – | – | – | – | – | – | – | – | – | 727.1 ± 0.22 kg/m3 | 22.07 ± 0.25 mN/m | – | – | – | CCCCCCCCCCCCCC [tetradecane]
7 | 21.56 ± 0.02 mN/m | 19.68 ± 0.02 mN/m | 17.65 ± 0.02 mN/m | 15.67 ± 0.02 mN/m | 13.77 ± 0.02 mN/m | 11.94 ± 0.02 mN/m | 10.18 ± 0.02 mN/m | 8.52 ± 0.02 mN/m | 6.95 ± 0.02 mN/m | 5.49 ± 0.02 mN/m | 4.13 ± 0.02 mN/m | 2.89 ± 0.02 mN/m | – | – | – | 1.77 ± 0.02 mN/m | 0.78 ± 0.02 mN/m | – | CCCCCCCCCCCCC [tridecane] + O=C=O
